Data from patent publication US5744621A, “Irreversible HIV protease inhibitors, intermediates, compositions and processes for the preparation thereof” (Lucky Limited., priority 1992, dated 1998).
Where two headings read alike, the source gives them in different places.

What was measured:
[1] = molecular target: T1, HIV-1 protease (Human immunodeficiency virus type 1 group M subtype B, UniProt P04585); experiment: Assay for inhibitory effect on HIV protease (residual enzyme activity, HPLC of substrate cleavage); assay type: biochemical; details: pH 5.5; for Ki / kinact: HIV-1 protease 2.6 nM; for Ki: inhibition constant; for kinact: rate constant of covalent bond formation, read-out: kina (converted); for kinact/KI: second order rate constant, HIV-1 protease, read-out: kina /KI (converted)
T1 construct: 2.6 nM of HIV-1 protease
Method: The inhibitory effect on HIV protease of the compounds of the present invention was determined by the following method.
To a buffer solution comprising 50 mM sodium acetate, pH 5.5, 1 mM dithiothreitol(DTT), 1 mM ethylenediaminetetraacetate (EDTA), 0.75M ammonium sulfate, 0.2M sodium chloride and 0.1% NP40(NONIDET P-40; Sigma Chemical Co., U.S.A.), were added various concentrations of a compound selected from Compound Nos. 1 to 92 to prepare a preincubation solution. Inhibition reaction was started with the addition of 2.6 nM of HIV-1 protease to the preincubation solution. Each 10 μl of the reaction solution was taken at a given time interval and added to 80 μl of assay solution containing 100 μM of reaction substrate in the same buffer solution as above to assay for the residual enzyme activity. In this context, an oligopeptide(KM =20 μM) consisting of 11 amino acids, i.e., Ser-Ile-Ala-Glu-(p-NO2)-Phe-Leu-Val-Arg-Ala-Lys-His, was used as a reaction substrate, which oligopeptide was to be cleaved in two by the breakage of amide bond between (P--NO2)-Phe and Leu upon the attack of HIV protease. The reaction rate was determined by subjecting the substrate before the reaction and the product after the reaction to HPLC separation and then measuring the relative amount of the product, using the strong absorbance of (p--NO2)-Phe at 280 nm. The amount of reduction in enzyme activity according to the elapsed time were measured and the natural logarithmic values(ln) of the measured amounts were plotted against time to obtain a linear graph and kobs was calculated from the slope of the linear graph.
The inhibition constant was calculated according to the following equation: [formula] wherein: kobs is a rate constant indicating the rate of reduction in enzyme activity according to the elapsed time under the presence of a given concentration of inhibitor,
kina is a rate constant indicating the rate of chemical reaction forming covalent bond between an enzyme and an inhibitor in Michaelis-Menten complex,
KI is an inhibition constant indicating the dissociation rate of Michaelis-Menten complex into an enzyme and an inhibitor, and
[I] means the inhibitor concentration.
The above equation is applicable to an experiment carried out under the condition in which the concentration of inhibitor is far higher than that of enzyme(Steady State Kinetic). […] The inhibition constants KI and kina and second order rate constant kina /KI were obtained by inputting the value of [E]/([E]+[EI]+[EI']) into KINSIM/FITSIM program. FIG. 1 exemplifies a result of the experiment determining the binding ratio of enzymes and inhibitors, which result was obtained by reacting the enzyme and the inhibitor in various concentration ratios for a sufficient time period(at least for 30 minutes), and then plotting the relative activity of the remaining enzyme against [conc. of inhibitor]/[conc. of enzyme].

[2] = system: HIV-1; experiment: Anti-viral activity: syncytium formation (Sup T1) or reverse transcriptase assay (H9); assay type: cell-based; details: Human immunodeficiency virus 1, SUP-T1
Method: The anti-viral activity of the compounds of the present invention was determined by measuring the concentration of the compounds that inhibits the proliferation of HIV by 50%(IC50) through a survey for syncytium formation or reverse transcriptase assay.
1×10^5 cells of each of H9(ATCC HTB 176) and Sup T1 cell lines were added to the wells of a 24-well microtiter plate and various concentrations so the compounds of the present invention were added thereto. 200 TCID50 (200-fold of 50% tissue culture infection dose) of HIV-1 inoculum and rpmi-1640 medium(Sigma Chemical Co., U.S.A) were added successively to the wells and the plate was incubated at 37° C. In case of Sup T1, the number of syncytium formed was investigated after 3 to 9 days. IC50 of each compound was determined by measuring the concentration of inhibitor that can reduce the number of syncytium by 50% compared with those formed in the same condition without the inhibitor.
In case of H9, three-quarters(3/4) of the culture medium in volume was refreshed every 3 days; and 6 ml of the culture fluid was centrifuged at 1000 rpm for 10 minutes. To 5 ml of the resulting supernatant were added 2.5 ml of 30% polyethyleneglycol(PEG, M.W. 6000-8000) and 0.4M NaCl. The resulting solution was allowed to stand at 0° C. overnight to precipitate virus particles. The solution was centrifuged at 2000 rpm for 45 minutes, the supernatant was discarded therefrom and the precipitate was diluted with 20 μl of a reverse transcriptase suspension buffer(50 mM tris-HCl, pH 7.5, 1 mM dithiothreitol, 20% glycerol, 0.25M KCl and 0.25% Triton X-100). The resulting suspension was stored in an Effendorf tube at -70° C. until used. A procedure of freezing said virus suspension for 2 minutes in dry ice and thawing same at 37° C. for 2 minutes was repeated three times and the resulting suspension was centrifuged at 4° C. The resulting supernatant was used in carrying out the reverse transcriptase assay.
10 μl of the said viral suspension was added to a solution of: 10 μl of buffer solution(250 mM tris-HCl, pH 7.5, 37.5 mM MgCl2, 0.25% triton X-100), 1.2 μl of 200 mM dithiothreitol, 5 μl of 10 μM oligo(dT)-poly(A)(Boeringer Manheim, 12-18 oligomer), 1 μl(1 μCi) of ^3 H-TTP(Thymidinetri-phosphate) and 23.6 μl of water; and the resulting mixture was placed at 37° C. After 1 hour, the mixture was poured onto a WHATMAN DEB1 filter and the filter was washed three times with 5 ml of 2×SSC buffer solution(17.53 g of sodium chloride, 8.82 g of sodium citrate, pH 7.0, 1 liter of water) for about 10 minutes each time and twice with 95% ethanol for 10 seconds. The filter was put onto aluminium foil and dried with an infra-red lamp. The amount of radioactivity was counted using a liquid scintillation counter. IC50 of each compound was determined by measuring the concentration of inhibitor that can reduce the activity of reverse transcriptase by 50%.

[3] = Cytotoxicity in H9 or Sup T1 cells (trypan blue dye exclusion); assay type: cell-based; details: human
Method: To determine the cytotoxicity of the compounds of the present invention, 0.1 μM to 100 μM of the novel compounds were added to H9 cell or Sup T1 cell and the mixture was cultured on a rpmi-1640 medium at 37° C. The medium was refreshed every 3 days and the extent of cell proliferation was observed using Hemacytometer according to the trypan blue dye exclusion technique which is well known in the art. CT50 (i.e., concentration that causes death of cells by 50%) was determined. For reference, AZT(Burrows-Wellcome), A-75925 (Abbott, C2 symmetric compound) and Ro-31-8959(F. Hofmann-La Roche) were used as control compounds.

[4] = concentration that causes death of cells by 50%, H9 or Sup T1 cells, 37° C, read-out: CT50 (the source's name)

SMILES	Ki [1]	kinact [1]	kinact/KI [1]	IC50 [2]	CC50 [3, 4]	CC50 ([3]; h9 or sup t1 cells)
CC(C)[C@H](NC(=O)C[C@@H]1O[C@@H]1[C@H](Cc1ccccc1)NC(=O)[C@H](CC(N)=O)NC(=O)c1ccc2ccccc2n1)C(N)=O [compound 32]	5 nM	0.00367 s⁻¹	733000 M⁻¹ s⁻¹	500 nM	> 100000 nM	
NC(=O)C[C@H](NC(=O)OCc1ccccc1)C(=O)NC[C@@H]1O[C@@H]1[C@H](Cc1ccccc1)NC(=O)[C@H](CC(N)=O)NC(=O)OCc1ccccc1 [compound 72]	110 nM	0.00367 s⁻¹	33300 M⁻¹ s⁻¹	500 nM		> 100000 nM
CC[C@H](C)[C@H](NC(=O)C[C@@H]1O[C@@H]1[C@H](Cc1ccccc1)NC(=O)[C@H](CC(N)=O)NC(=O)c1ccc2ccccc2n1)C(N)=O [compound 27, N-{5-L-[[N-(2-quinolinecarbonyl)-L-asparaginyl]amino]-(4R,3S)-epoxy-6-phenylhexanoyl}-L-isoleucinyl amide]	3 nM	0.00333 s⁻¹	1.12e+06 M⁻¹ s⁻¹	1000 nM	~10000 nM	
CC(C)[C@@H](NC(=O)C[C@@H]1O[C@@H]1[C@H](Cc1ccccc1)NC(=O)[C@H](CC(N)=O)NC(=O)c1ccc2ccccc2n1)c1ccccc1 [compound 43]	3.2 nM	0.0283 s⁻¹	88300 M⁻¹ s⁻¹	50 nM	> 100000 nM	
CC[C@H](C)[C@H](NC(=O)C[C@@H]1O[C@@H]1[C@H](Cc1ccccc1)NC(=O)[C@@H](NC(=O)N(C)Cc1ccccn1)C(C)C)C(=O)OC [compound 35, N-{N-L-[[N,N-(2-pyridylmethyl)(methyl)-amino]carbonylvalinyl]amino-(4R,3S)-epoxy-6-phenyl-hexanoyl}-L-isoleucine methyl ester]	> 10000 nM			1000 nM	> 100000 nM	
CC(C)[C@@H](CCc1ccccc1)NC(=O)C[C@@H]1O[C@@H]1[C@H](Cc1ccccc1)NC(=O)[C@H](CC(N)=O)NC(=O)c1ccc2ccccc2n1 [compound 49]	800 nM	0.03 s⁻¹	38300 M⁻¹ s⁻¹	> 5000 nM	> 100000 nM	
C[C@@H](O)[C@H](NC(=O)OCc1ccccc1)C(=O)NC[C@@H]1O[C@@H]1[C@H](Cc1ccccc1)NC(=O)[C@@H](NC(=O)OCc1ccccc1)[C@@H](C)O [compound 73]	> 10000 nM			5000 nM	> 100000 nM	
CC(C)[C@H](NC(=O)OCc1ccccn1)C(=O)NC[C@@H]1O[C@@H]1[C@H](Cc1ccccc1)NC(=O)[C@@H](NC(=O)OCc1ccccn1)C(C)C [compound 77]	100 nM	0.004 s⁻¹	40000 M⁻¹ s⁻¹	1000 nM	> 100000 nM	
CC(C)C(Cc1ccccc1)NC(=O)C[C@@H]1O[C@@H]1[C@H](Cc1ccccc1)NC(=O)[C@H](CC(N)=O)NC(=O)c1ccc2ccccc2n1 (stereo partly shown) [compound 48]	600 nM	0.035 s⁻¹	58300 M⁻¹ s⁻¹	500 nM	~5000 nM	
NC(=O)C[C@H](NC(=O)c1ccc2ccccc2n1)C(=O)N[C@@H](Cc1ccccc1)[C@H]1O[C@H]1CCc1ccccc1 [compound 62, 2-L-(N-2-quinolinecarbonyl-L-asparaginyl)amino-(3R,4S)-epoxy-1,6-diphenylhexane]	130 nM	0.00183 s⁻¹	14200 M⁻¹ s⁻¹	200 to 700 nM	> 100000 nM	
CC[C@H](C)[C@H](NC(=O)C[C@@H]1O[C@@H]1[C@H](Cc1ccccc1)NC(=O)[C@H](CC(N)=O)NC(=O)c1ccc2ccccc2n1)C(=O)NOC [compound 28, N-{5-L-[[N-(2-quinolinecarbonyl)-L-asparaginyl]amino]-(4R,3S)-epoxy-6-phenylhexanoyl}-L-isoleucinyl-(N-methoxy)-amine]	15 nM	0.00333 s⁻¹	217000 M⁻¹ s⁻¹	600 nM	> 100000 nM	
CC[C@H](C)[C@H](NC(=O)C[C@@H]1O[C@@H]1[C@H](Cc1ccccc1)NC(=O)[C@H](CC(N)=O)NC(=O)c1ccc2ccccc2n1)C(=O)NO [compound 40]	33 nM	0.00417 s⁻¹	1270 M⁻¹ s⁻¹	700 nM	> 100000 nM	
CC(C)[C@H](NC(=O)OCc1ccccc1)C(=O)NC[C@@H]1O[C@@H]1[C@H](CC1CCCCC1)NC(=O)[C@@H](NC(=O)OCc1ccccc1)C(C)C [compound 86, 4S-1,4-bis[N-(N'-benzyloxycarbonyl-L-valinyl)amino]-5-cyclohexyl-(2S,3R)-(Z)-epoxypentane]	50 nM	0.00333 s⁻¹	66700 M⁻¹ s⁻¹	500 nM	> 100000 nM	
NC(=O)C[C@H](NC(=O)c1ccc2ccccc2n1)C(=O)NC[C@@H]1O[C@@H]1[C@H](Cc1ccccc1)NC(=O)[C@H](CC(N)=O)NC(=O)c1ccc2ccccc2n1 [compound 84]	500 nM	0.00333 s⁻¹	6670 M⁻¹ s⁻¹	1000 nM	> 100000 nM	
CC[C@H](C)[C@H](NC(=O)C[C@@H]1O[C@@H]1[C@H](Cc1ccccc1)NC(=O)[C@H](CC(N)=O)NC(=O)COc1cccc2ccccc12)C(=O)OC [compound 3]	40 nM	0.002 s⁻¹	50000 M⁻¹ s⁻¹	3000 nM	> 100000 nM	
CC(C)(C)NC(=O)[C@@H]1C[C@@H]2CCCC[C@@H]2CN1C[C@@H](O)[C@H](Cc1ccccc1)NC(=O)[C@H](CC(N)=O)NC(=O)c1ccc2ccccc2n1 [Ro-31-8959, reference compound]				40 nM		> 100000 nM
